Test system: angioedema in CSU patients
Experiment: Phase 2 CSU study: angioedema activity score over 7 days (AAS7)
Type: in vivo, human
Settings: for Non-responder n (%), AAS7 = 0 / OR (95% CI) for rilzabrutinib vs. placebo, AAS7 = 0 / RRD (%) for rilzabrutinib vs. placebo (95% CI), AAS7 = 0 / Responder n (%), AAS7 = 0: outlier removed
Excerpt: The study comprises a 12 week, randomized, double-blind, placebo-controlled, multi-center, dose-ranging efficacy and safety phase, followed by a 40 week open label extension (OLE) phase (see FIG. 1). The study consists of three phases and an optional OLE phase. […] The weekly angioedema activity score (AAS7) was proposed as a tertiary endpoint. […] Patients were to complete the AAS using the e-diary. The e-diary was to be used once daily on the same time of each day recording of participant's answers to the angioedema activity score over 7 days (AAS7) questionnaire.

[1] = 400 mg BID, Week 12, omalizumab-naïve, angioedema at baseline
[2] = 400 mg QPM, Week 1, ITT, angioedema at baseline
[3] = 400 mg QPM, Week 1, omalizumab-naïve
[4] = 400 mg QPM, Week 1, omalizumab-naïve, angioedema at baseline
[5] = 400 mg QPM, Week 2, ITT, angioedema at baseline
[6] = 400 mg QPM, Week 2, omalizumab-naïve
[7] = 400 mg QPM, Week 2, omalizumab-naïve, angioedema at baseline
[8] = 400 mg QPM, Week 3, ITT, angioedema at baseline
[9] = 400 mg QPM, Week 3, omalizumab-naïve
[10] = 400 mg QPM, Week 3, omalizumab-naïve, angioedema at baseline
[11] = 400 mg QPM, Week 4, ITT, angioedema at baseline
[12] = 400 mg QPM, Week 4, omalizumab-naïve
[13] = 400 mg QPM, Week 4, omalizumab-naïve, angioedema at baseline

## CC(C)(C=C(C#N)C(=O)N1CCC[C@@H](n2nc(-c3ccc(Oc4ccccc4)cc3F)c3c(N)ncnc32)C1)N1CCN(C2COC2)CC1 [rilzabrutinib, (R)-2-[3-[4-amino-3-(2-fluoro-4-phenoxy-phenyl)pyrazolo[3,4-d]pyrimidin-1-yl]piperidine-1-carbonyl]-4-methyl-4-[4-(oxetan-3-yl)piperazin-1-yl]pent-2-enenitrile]
[1]
  AAS7 Change from baseline LS Mean (SE): −41.53 (4.39)
  AAS7 Post-baseline Mean (SD): 11.73 (18.07)
  Participants with AAS7 = 0, Responder n (%): 11 (42.3) n (%)
400 mg BID, within one week of initiating treatment, omalizumab-naïve
  patients achieving angioedema score (AAS7) of 0: 42.3%
[2]
  AAS7 % Change difference for rilzabrutinib vs. placebo LS Mean (95% CI): −12.18 (−42.38, 18.02) %
  AAS7 % Change from baseline LS Mean (SE): −32.14 (9.37) %
  AAS7 Change difference for rilzabrutinib vs. placebo LS Mean (95% CI): −5.18 (−18.04, 7.67)
  AAS7 Change from baseline LS Mean (SE): −19.68 (3.99)
  AAS7 Post-baseline Mean (SD): 34.57 (21.50)
[3]
  Non-responder n (%), AAS7 = 0: 24 (64.9) n (%)
  OR (95% CI) for rilzabrutinib vs. placebo, AAS7 = 0: 1.428
  RRD (%) for rilzabrutinib vs. placebo (95% CI), AAS7 = 0: 8.1 %
  Responder n (%), AAS7 = 0: 13 (35.1) n (%)
[4]
  AAS7 % Change difference for rilzabrutinib vs. placebo LS Mean (95% CI): −14.70 (−47.27, 17.88) %
  AAS7 % Change from baseline LS Mean (SE): −31.74 (9.84) %
  AAS7 = 0, OR (95% CI) for rilzabrutinib vs. placebo: 3.545
  AAS7 = 0, RRD (%) for rilzabrutinib vs. placebo (95% CI): 9.1 %
  AAS7 Change difference for rilzabrutinib vs. placebo LS Mean (95% CI): −5.57 (−19.34, 8.21)
  AAS7 Change from baseline LS Mean (SE): −19.33 (4.16)
  AAS7 Post-baseline Mean (SD): 34.85 (21.86)
[5]
  AAS7 % Change difference for rilzabrutinib vs. placebo LS Mean (95% CI): 4.26 (−27.23, 35.76) %
  AAS7 Change from baseline LS Mean (SE): −21.54 (4.19)
  AAS7 Post-baseline Mean (SD): 32.95 (23.02)
[6]
  Non-responder n (%), AAS7 = 0: 24 (64.9) n (%)
  OR (95% CI) for rilzabrutinib vs. placebo, AAS7 = 0: 0.875
  RRD (%) for rilzabrutinib vs. placebo (95% CI), AAS7 = 0: −3.3 %
  Responder n (%), AAS7 = 0: 13 (35.1) n (%)
[7]
  AAS7 % Change difference for rilzabrutinib vs. placebo LS Mean (95% CI): 0.88 (−32.86, 34.63) %
  AAS7 % Change from baseline LS Mean (SE): −36.33 (12.38) %
  AAS7 = 0, OR (95% CI) for rilzabrutinib vs. placebo: 0.514
  AAS7 = 0, RRD (%) for rilzabrutinib vs. placebo (95% CI): −9.2 %
  AAS7 Post-baseline Mean (SD): 33.25 (23.40)
[8]
  AAS7 % Change difference for rilzabrutinib vs. placebo LS Mean (95% CI): 15.17 (−24.59, 54.94) %
  AAS7 % Change from baseline LS Mean (SE): −33.35 (14.94) %
  AAS7 Change difference for rilzabrutinib vs. placebo LS Mean (95% CI): 2.33 (−9.09, 13.74)
  AAS7 Change from baseline LS Mean (SE): −21.82 (4.29)
  AAS7 Post-baseline Mean (SD): 32.48 (20.51)
[9]
  Non-responder n (%), AAS7 = 0: 25 (67.6) n (%)
  OR (95% CI) for rilzabrutinib vs. placebo, AAS7 = 0: 1.041
  RRD (%) for rilzabrutinib vs. placebo (95% CI), AAS7 = 0: 0.9 %
  Responder n (%), AAS7 = 0: 12 (32.4) n (%)
[10]
  AAS7 % Change difference for rilzabrutinib vs. placebo LS Mean (95% CI): 14.44 (−28.58, 57.46) %
  AAS7 % Change from baseline LS Mean (SE): −33.23 (15.73) %
  AAS7 = 0, Non-responder n (%): 23 (85.2) n (%)
  AAS7 = 0, OR (95% CI) for rilzabrutinib vs. placebo: 0.686
  AAS7 = 0, RRD (%) for rilzabrutinib vs. placebo (95% CI): −5.0 %
  AAS7 Post-baseline Mean (SD): 32.60 (20.89)
  Participants with AAS7 = 0, Responder n (%): 4 (14.8) n (%)
[11]
  AAS7 % Change difference for rilzabrutinib vs. placebo LS Mean (95% CI): −12.88 (−48.34, 22.58) %
  AAS7 % Change from baseline LS Mean (SE): −49.47 (13.21) %
  AAS7 Change difference for rilzabrutinib vs. placebo LS Mean (95% CI): −2.68 (−13.70, 8.35)
  AAS7 Change from baseline LS Mean (SE): −25.28 (4.12)
  AAS7 Post-baseline Mean (SD): 29.42 (20.30)
[12]
  Non-responder n (%), AAS7 = 0: 23 (62.2) n (%)
  OR (95% CI) for rilzabrutinib vs. placebo, AAS7 = 0: 0.874
  RRD (%) for rilzabrutinib vs. placebo (95% CI), AAS7 = 0: −3.0 %
  Responder n (%), AAS7 = 0: 14 (37.8) n (%)
[13]
  AAS7 % Change difference for rilzabrutinib vs. placebo LS Mean (95% CI): −19.26 (−57.48, 18.97) %
  AAS7 % Change from baseline LS Mean (SE): −49.19 (13.84) %
